Source: patent US20070269832A1, “Novel affinity labels” (priority 2001, published 2007)
Peptide text beside a SMILES is read from it. * marks the point of attachment. Cbz = O=C(OCc1ccccc1)*; CH2F = FC*

How the values were obtained:
Format in all cases: cell-based, Human
[1] = test system: HL-60 cells; assay: Labeling of untreated and CPT-treated HL-60 cells with FLISP (FFCK, FLCK) or FLICA reagents, fluorescence measured by LSC; conditions: for binding of the ligand by cells treated with CPT vs untreated cells (in words): HL-60, 3 h CPT, combined with PI
Protocol: Preparation of Reagents: Fluorescent Inhibitors of Serine Proteases (FLISP) reagents, 5(6)-Carboxyfluoresceinyl-L-phenylalanylchloromethyl ketone (FFCK) and 5(6)-carboxyfluoresceinyl-L-leucylchloromethyl ketone (FLCK) were dissolved initially in dimethyl sulfoxide (DMSO; Sigma) to yield a 10 mM concentration. Aliquots were made from this stock solution and stored frozen at −20° C. protected from light. This reagent stock was then diluted directly into the cell culture media to give a 1× working reagent concentration of 10 μM. Dilution of the reagent into aqueous (cell culture) media is done just prior to cell exposure to preserve the labile chloromethyl ketone reactivity of FLISP reagent.
Fluorescent inhibitors of caspases (FLICA) reagents, namely the fluorescein labeled VAD-FMK (FAM-VAD-FMK) and sulforhodamine labeled VAD-FMK (SR-VAD-FMK) (Immunochemistry Technologies; Bloomington, Minn.) were both designed to detect the presence of active caspases within apoptotic cells. These inhibitors were dissolved in DMSO to obtain a 150× concentrated stock solution. Aliquots of these solutions were stored at −20 °C in the dark. Prior to use, a 30× working solution of either FAM-VAD-FMK or SR-VAD-FMK was prepared by diluting the stock solution 1:5 in phosphate buffered saline (PBS) and mixing until the solution become clear. The 30× working solution was diluted 1:30 cell culture media to give a final 1× working reagent concentration of 10 μM.
(§1) Cells: Human promyelocytic leukemic HL-60 cells were obtained from American Type Culture Collection (ATCC; Rockville, Md.). […]
Cell staining and fluorescence measurement by LSC: The HL-60 cells from the untreated or CPT treated cultures were centrifuged (200 g, 5 min) and resuspended in PBS at approximately 10^4 cells per 5 ml volume. […]

[2] = test system: HL-60 cells; assay: Dual labeling of CPT-treated HL-60 cells with SR-VAD-FMK and FFCK or FLCK (fluorescence microscopy / LSC); conditions: CPT-treated HL-60, dual labeling
Protocol: Cell staining and fluorescence measurement by LSC: The HL-60 cells from the untreated or CPT treated cultures were centrifuged (200 g, 5 min) and resuspended in PBS at approximately 10^4 cells per 5 ml volume. Cells were then attached electrostatically to microscope slides as described before (Bedner et al., Exp Cell Res., 2000, 259:308-313; Smolewski et al., Cytometry, 2001, 44:73-82). Briefly, the attachment was achieved by the incubation (15 min) of cells suspended in serum-free PBS in shallow (<1 mm depth; 1.5×1.5 cm) wells on horizontally placed microscope slides that were rinsed in 100% ethanol and air dried prior to use, at 100% humidity. The electrostatically attached cells remain viable, exclude such dyes as trypan blue and propidium iodide (PI), and have unchanged morphology for several hours (Bedner et al., Exp Cell Res., 2000, 259:308-313). After the cells became attached, PBS was removed from the wells and was replaced by 150 μL of the culture medium containing 10% FCS. FLISP staining solutions were prepared by diluting 5 μL of the 10 mM FFCK or FLCK stock solution into 5 mL of culture medium yielding a final FLISP concentration 10 μM. The medium from above the cells on the slide was then replaced with 150 μL of this staining solution. A polyethylene foil (2.5×2.5 cm) was positioned over the staining solution to prevent drying. The slides were subsequently incubated for 1 h at 37° C. in a closed box with wet tissue to additionally prevent drying. […] The slides were placed on the motorized stage of a laser scanning microscope (LSC; Kamentsky, L. A., Methods Cell Biol, 2001, 63:51-87; Darzynkiewicz et al., Exp Cell Res, 1999, 249:1-12) for fluorescence measurement. Cell fluorescence was then measured using a 488 nm excitation laser line and recording integral and maximal pixel intensities of green FFCK or FLCK. FLICA staining was measured under the same conditions as FLISP staining. Fluorescence can also be measured by flow cytometer and fluorescence microscopy. […]

[3] = test system: HL-60 cells; assay: Pretreatment of HL-60 cells with unlabeled protease inhibitors during CPT induction of apoptosis, then binding of FAM-VAD-FMK, FFCK or FLCK measured by LSC; conditions: HL-60, CPT 3 h in presence of the unlabeled inhibitor; mean (SE) of three experiments
Protocol: Unlabeled (cold) N-tosyl-phenylalanylchloromethyl ketone (TPCK) and N-tosyl-lysylchloromethyl keytone (TLCK) were obtained from Sigma Chemical Co.; concentrated solutions at 10 mM were freshly prepared in DMSO. Further dilutions were made in tissue culture media.
The non-fluorescent poly-caspase inhibitor Z-VAD-FMK was obtained from Enzyme Systems Products. A 20 mM stock solution of Z-VAD-FMK was made in DMSO (Sigma) and the inhibitor was then diluted in culture media to obtain the final 50 μM concentration in the cultures.
as §1
Cell staining and fluorescence measurement by LSC: The HL-60 cells from the untreated or CPT treated cultures were centrifuged (200 g, 5 min) and resuspended in PBS at approximately 10^4 cells per 5 ml volume. […] The slides were placed on the motorized stage of a laser scanning microscope (LSC; Kamentsky, L. A., Methods Cell Biol, 2001, 63:51-87; Darzynkiewicz et al., Exp Cell Res, 1999, 249:1-12) for fluorescence measurement. Cell fluorescence was then measured using a 488 nm excitation laser line and recording integral and maximal pixel intensities of green FFCK or FLCK. FLICA staining was measured under the same conditions as FLISP staining. Fluorescence can also be measured by flow cytometer and fluorescence microscopy. […]

Row | Compound | binding of the ligand by cells treated with CPT vs untreated cells (in words) [1] | fluorescence intensity of FLCK labeled cells, greater compared to FFCK labeled cells ([1]; identical settings of the photomultiplier sensitivity) | fluorescence of labeled cells (intensity and distribution, in words) [2] | percent decrease in frequency of FAM-VAD-FMK labeled cells (caspase activation) vs CPT without unlabeled inhibitor [3] [%]
1 | 5(6)-carboxyfluoresceinyl-L-leucylchloromethyl ketone [FLCK] | induced binding | approximately 60% | faint and more uniformly distributed | 
2 | 5(6)-Carboxyfluoresceinyl-L-phenylalanylchloromethyl ketone [FFCK] | induced binding |  | strong | 
3 | COC(=O)C[C@H](NC(=O)[C@H](C)NC(=O)[C@@H](NC(=O)OCc1ccccc1)C(C)C)C(=O)CF [Z-VAD-FMK] (Cbz-Val-Ala-Asp(OMe)-CH2F) |  |  |  | 95.0
4 | Sulforhodaminyl-L-valylalanylaspartylflyoromethyl ketone [SR-VAD-FMK, reference compound] |  |  | uniformly dispersed | 
